Measured values as given in ChEMBL document CHEMBL1201862, “PubChem BioAssay data set” (2004).
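Protocol summary: plate cells (96-well), add compound at 5 concentrations, incubate 48 h, interpolate endpoints linearly. GI50 = concentration required for 50% inhibition of growth.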 Activity calls are given as the source filed them. Rule as the data show it: active = GI50 up to about 1.1 µM and inactive = higher.

How the values were obtained:
Experiment in all cases: DTP human tumour cell line panel, 48 h
LOX IMVI = tested on: LOX IMVI
RXF 631 = tested on: RXF 631
HCT-116 = tested on: HCT-116
COLO 205 = tested on: COLO 205
Malme-3M = tested on: Malme-3M
RPMI-8226 = tested on: RPMI-8226
SK-MEL-2 = tested on: SK-MEL-2
SK-MEL-28 = tested on: SK-MEL-28
CCRF-CEM = tested on: CCRF-CEM
DMS-114 = tested on: DMS-114
DLD-1 = tested on: DLD-1
RXF 393 = tested on: RXF 393
KM-20L2 = tested on: KM-20L2
LXFL 529 = tested on: LXFL 529
M14 = tested on: M14
MOLT-4 = tested on: MOLT-4
SW-620 = tested on: SW-620
HOP-92 = tested on: HOP-92
UACC-62 = tested on: UACC-62
HCC 2998 = tested on: HCC 2998
NCI-H23 = tested on: NCI-H23
SF-268 = tested on: SF-268
SNB-19 = tested on: SNB-19
UO-31 = tested on: UO-31
786-0 = tested on: 786-0
A549 = tested on: A549
HT-29 = tested on: HT-29
XF498 = tested on: XF498
U-251 = tested on: U-251
OVCAR-8 = tested on: OVCAR-8
OVCAR-5 = tested on: OVCAR-5
SK-MEL-5 = tested on: SK-MEL-5
UACC-257 = tested on: UACC-257
SF-295 = tested on: SF-295
SN12C = tested on: SN12C
EKVX = tested on: EKVX
SNB-78 = tested on: SNB-78
OVCAR-3 = tested on: OVCAR-3
HL-60 = tested on: HL-60
M19-MEL = tested on: M19-MEL
TK-10 = tested on: TK-10
SNB-75 = tested on: SNB-75
ACHN = tested on: ACHN
HOP-18 = tested on: HOP-18
NCI-H226 = tested on: NCI-H226
NCI-H460 = tested on: NCI-H460
OVCAR-4 = tested on: OVCAR-4
KM12 = tested on: KM12
IGROV-1 = tested on: IGROV-1
HOP-62 = tested on: HOP-62
K562 = tested on: K562
SK-OV-3 = tested on: SK-OV-3
SF-539 = tested on: SF-539
NCI-H522 = tested on: NCI-H522
DMS-273 = tested on: DMS-273
CAKI-1 = tested on: CAKI-1
A498 = tested on: A498
SR = tested on: SR
HCT-15 = tested on: HCT-15

In the case of O=C(CC1SC(Nc2ccccc2Cl)=NC1=O)Nc1ccc(Cl)cc1Cl (configuration not stated), the GI50 (LOX IMVI) was > 100 µM (inactive), the GI50 (RXF 631) was > 100 µM (inactive) and the GI50 (HCT-116) was > 100 µM (inactive). The GI50 (COLO 205) was > 100 µM (inactive), the GI50 (Malme-3M) was > 100 µM (inactive) and the GI50 (RPMI-8226) was 54 µM (inactive). The GI50 (SK-MEL-2) was 81.1 µM (inactive), the GI50 (SK-MEL-28) was > 100 µM (inactive) and the GI50 (CCRF-CEM) was > 100 µM (inactive). For the same molecule, the GI50 (DMS-114) was 78.2 µM (inactive), the GI50 (DLD-1) was > 100 µM (inactive) and the GI50 (RXF 393) was > 100 µM (inactive). The GI50 (KM-20L2) was > 100 µM (inactive), the GI50 (LXFL 529) was > 100 µM (inactive) and the GI50 (M14) was > 100 µM (inactive). The GI50 (MOLT-4) was > 100 µM (inactive), the GI50 (SW-620) was > 100 µM (inactive) and the GI50 (HOP-92) was > 100 µM (inactive). For the same molecule, the GI50 (UACC-62) was > 100 µM (inactive), the GI50 (HCC 2998) was > 100 µM (inactive) and the GI50 (NCI-H23) was > 100 µM (inactive). The GI50 (SF-268) was > 100 µM (inactive), the GI50 (SNB-19) was > 100 µM (inactive) and the GI50 (UO-31) was > 100 µM (inactive). For the same molecule, the GI50 (786-0) was > 100 µM (inactive), the GI50 (A549) was > 100 µM (inactive) and the GI50 (HT-29) was > 100 µM (inactive). For the same molecule, the GI50 (XF498) was > 100 µM (inactive), the GI50 (U-251) was > 100 µM (inactive) and the GI50 (OVCAR-8) was > 100 µM (inactive). For the same molecule, the GI50 (OVCAR-5) was > 100 µM (inactive), the GI50 (SK-MEL-5) was > 100 µM (inactive) and the GI50 (UACC-257) was > 100 µM (inactive). The GI50 (SF-295) was > 100 µM (inactive), the GI50 (SN12C) was > 100 µM (inactive) and the GI50 (EKVX) was > 100 µM (inactive). For the same molecule, the GI50 (SNB-78) was > 100 µM (inactive), the GI50 (OVCAR-3) was > 100 µM (inactive) and the GI50 (HL-60) was > 100 µM (inactive). The GI50 (M19-MEL) was > 100 µM (inactive), the GI50 (TK-10) was > 100 µM (inactive) and the GI50 (SNB-75) was > 100 µM (inactive). The GI50 (ACHN) was > 100 µM (inactive), the GI50 (HOP-18) was > 100 µM (inactive) and the GI50 (NCI-H226) was > 100 µM (inactive). For the same molecule, the GI50 (NCI-H460) was > 100 µM (inactive), the GI50 (OVCAR-4) was > 100 µM (inactive) and the GI50 (KM12) was > 100 µM (inactive). For the same molecule, the GI50 (IGROV-1) was > 100 µM (inactive) and the GI50 (HOP-62) was > 100 µM (inactive).

COC(=O)C(=O)C(C(=O)C(=O)Nc1ccccc1C(N)=O)c1nc2ccc([N+](=O)[O-])cc2nc1O (configuration not stated) was tested, and the GI50 (LOX IMVI) was > 100 µM (inactive), the GI50 (RXF 631) was > 100 µM (inactive) and the GI50 (HCT-116) was > 100 µM (inactive). For the same molecule, the GI50 (K562) was > 100 µM (inactive), the GI50 (COLO 205) was > 100 µM (inactive) and the GI50 (Malme-3M) was > 100 µM (inactive). For the same molecule, the GI50 (SK-OV-3) was > 100 µM (inactive), the GI50 (RPMI-8226) was > 100 µM (inactive) and the GI50 (SK-MEL-2) was > 100 µM (inactive). For the same molecule, the GI50 (SF-539) was > 100 µM (inactive), the GI50 (SK-MEL-28) was > 100 µM (inactive) and the GI50 (CCRF-CEM) was > 100 µM (inactive). The GI50 (DLD-1) was > 100 µM (inactive), the GI50 (RXF 393) was > 100 µM (inactive) and the GI50 (KM-20L2) was > 100 µM (inactive). The GI50 (LXFL 529) was > 100 µM (inactive), the GI50 (M14) was > 100 µM (inactive) and the GI50 (NCI-H522) was > 100 µM (inactive). For the same molecule, the GI50 (MOLT-4) was > 100 µM (inactive), the GI50 (SW-620) was > 100 µM (inactive) and the GI50 (HOP-92) was > 100 µM (inactive). For the same molecule, the GI50 (DMS-273) was > 100 µM (inactive), the GI50 (UACC-62) was > 100 µM (inactive) and the GI50 (HCC 2998) was > 100 µM (inactive). For the same molecule, the GI50 (CAKI-1) was > 100 µM (inactive), the GI50 (NCI-H23) was > 100 µM (inactive) and the GI50 (SF-268) was > 100 µM (inactive). The GI50 (SNB-19) was > 100 µM (inactive), the GI50 (UO-31) was > 100 µM (inactive) and the GI50 (786-0) was > 100 µM (inactive). For the same molecule, the GI50 (A549) was > 100 µM (inactive), the GI50 (HT-29) was > 100 µM (inactive) and the GI50 (XF498) was > 100 µM (inactive). For the same molecule, the GI50 (U-251) was > 100 µM (inactive), the GI50 (A498) was > 100 µM (inactive) and the GI50 (OVCAR-8) was > 100 µM (inactive). For the same molecule, the GI50 (OVCAR-5) was > 100 µM (inactive), the GI50 (SK-MEL-5) was > 100 µM (inactive) and the GI50 (SR) was > 100 µM (inactive). For the same molecule, the GI50 (UACC-257) was > 100 µM (inactive), the GI50 (SF-295) was > 100 µM (inactive) and the GI50 (SN12C) was > 100 µM (inactive). The GI50 (EKVX) was > 100 µM (inactive), the GI50 (SNB-78) was > 100 µM (inactive) and the GI50 (HL-60) was > 100 µM (inactive). For the same molecule, the GI50 (M19-MEL) was > 100 µM (inactive), the GI50 (TK-10) was > 100 µM (inactive) and the GI50 (SNB-75) was > 100 µM (inactive). The GI50 (ACHN) was > 100 µM (inactive), the GI50 (HOP-18) was > 100 µM (inactive) and the GI50 (NCI-H226) was > 100 µM (inactive). The GI50 (NCI-H460) was > 100 µM (inactive), the GI50 (OVCAR-4) was > 100 µM (inactive) and the GI50 (KM12) was > 100 µM (inactive). For the same molecule, the GI50 (IGROV-1) was > 100 µM (inactive), the GI50 (HCT-15) was over 100 µM and the GI50 (HOP-62) was > 100 µM (inactive).
